Patent US8871798B2, “Tricyclic pyridyl-vinyl pyrroles as PAR1 inhibitors” (Sanofi, priority 2010, dated 2014)
Blank lines part the entries; values can stand above or below the compound they belong to.

Target: T1, PAR1 (Homo sapiens, UniProt P25116)
T1 construct: endogenous in cells; host or cells: washed platelets from blood of healthy volunteers
T1 sequence (P25116 22-425): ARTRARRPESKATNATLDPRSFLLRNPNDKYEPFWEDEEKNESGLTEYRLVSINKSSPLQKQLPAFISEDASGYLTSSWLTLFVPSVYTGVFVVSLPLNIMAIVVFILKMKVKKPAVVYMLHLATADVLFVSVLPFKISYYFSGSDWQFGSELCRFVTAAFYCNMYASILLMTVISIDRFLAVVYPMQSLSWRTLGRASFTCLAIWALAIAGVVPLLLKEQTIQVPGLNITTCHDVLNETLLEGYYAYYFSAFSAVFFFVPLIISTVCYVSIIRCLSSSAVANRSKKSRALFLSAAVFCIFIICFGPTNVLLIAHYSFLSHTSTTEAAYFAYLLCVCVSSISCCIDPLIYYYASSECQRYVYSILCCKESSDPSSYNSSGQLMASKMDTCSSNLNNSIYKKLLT
Experiment: Inhibition of PAR1-mediated platelet aggregation induced by TRAP (thrombin receptor-activating peptide), washed platelets, 96-well format
Format: cell-based
Conditions: TRAP-induced aggregation of platelets from healthy volunteers; 30 min preincubation at RT; AUC of kinetics at 650 nm, 37° C., 20 minutes
Description: PAR1 Determination Method: Inhibition of PAR1-Mediated Platelet Aggregation
The pharmacological testing of the substances took place in platelet aggregation induced by TRAP (thrombin receptor-activating peptide) in 96-well format. For this purpose, blood was taken from healthy volunteers in 20 ml syringes containing 2 ml of 3.13% strength sodium citrate solution. After centrifugation at 150×g for 20 minutes, the platelet-rich plasma (PRP) was separated off and mixed with 1 μl of PGE1 solution (500 μg/ml in ethanol)/ml of PRP. Incubation at RT for 5 minutes was followed by centrifugation at 120×g for 15 minutes to remove the leukocytes. The leukocyte-free PRP was transferred in 5 ml portions into 15 ml PP tubes and centrifuged at 360×g for 15 minutes in order to pellet the platelets. The plasma was then decanted off and the platelet sediment from 5 ml of PRP was resuspended in 1 ml of Tyrode's (120 mM NaCl, 2.6 mM KCl, 12 mM NaHCO3, 0.39 mM NaH2PO4×H2O, 10 mM HEPES, 0.35% BSA (Bovine Serum Albumin), 5.5 mM glucose, pH 7.4) and adjusted with Tyrode's to a platelet count of 3×10^5/microliter (μl). 13 ml of this cell suspension were then mixed with 866 μl of 10 mM CaCl2 solution, and 120 μl thereof were pipetted into each well of a 96-well plate containing 15 μl of the substance to be tested. After incubation at RT in the dark for 30 minutes, 15 μl of a TRAP solution (70-100 μM) were added as agonist, and kinetics were recorded at 650 nm in a SpectraMax 340 at 37° C. for 20 minutes while shaking. The areas under the curves of negative control (Tyrode's/DMSO) and positive control (15 μl of agonist DMSO) were calculated and the difference was fixed as the 100% value. The substances to be tested were pipetted as serial dilutions in duplicate determination, the AUC was likewise determined for each substance concentration, and the % inhibition of the AUC compared with the control was calculated. On the basis of the % inhibition, the IC50 was calculated by nonlinear regression analysis according to the 4-parameter equation.

SMILES: CN1C(=O)C2C(C1=O)C1COCCN1C2/C=C/c1ccc(-c2cccc(F)c2)cn1 (racemic) [13 (Fr. 3), 6-{(E)-2-[5-(3-Fluorophenyl)pyridin-2-yl]vinyl}-8-methylhexahydropyrrolo[3′,4′:3,4]pyrrolo[2,1-c][1,4]oxazine-7,9-dione]
IC50: 7.1 µM

SMILES: CN1C(=O)C2C(C1=O)C1C[C@H](O)CN1C2/C=C/c1ccc(-c2cccc(F)c2)cn1 (mixture of isomers) [11 (Fr. 2), (S)-4-{(E)-2-[5-(3-Fluorophenyl)pyridin-2-yl]vinyl}-7-hydroxy-2-methylhexahydropyrrolo[3,4-a]pyrrolizine-1,3-dione]
IC50: 15.8 µM

SMILES: CCN1C(=O)C2C(C1=O)C1CCCCN1C2/C=C/c1ccc(-c2cccc(F)c2)cn1 (racemic) [14 (Fr. 3), 2-Ethyl-4-{(E)-2-[5-(3-fluorophenyl)pyridin-2-yl]vinyl}octahydropyrrolo[3,4-a]indolizine-1,3-dione]
IC50: 3.68 µM

Second part, the compound after the results:

IC50: 4.09 µM
SMILES: COc1ccccc1-c1ccc(/C=C/[C@H]2[C@H]3C(=O)N(C)C(=O)[C@H]3[C@@H]3CCCCN23)nc1 (racemic) [Example 19, 4-{(E)-2-[5-(2-Methoxyphenyl)pyridin-2-yl]vinyl}-2-methyloctahydropyrrolo[3,4-a]-indolizine-1,3-dione]

IC50: 3.23 µM
SMILES: CN1C(=O)[C@@H]2[C@H](C1=O)[C@H](/C=C/c1ccc(-c3cccc(C(F)(F)F)c3)cn1)N1CCCC[C@@H]21 (racemic) [Example 18, 2-Methyl-4-{(E)-2-[5-(3-trifluoromethylphenyl)pyridin-2-yl]vinyl}octahydropyrrolo[3,4-a]indolizine-1,3-dione]

IC50: 0.26 µM
SMILES: CN1C(=O)[C@@H]2[C@H](C1=O)[C@H](/C=C/c1ccc(-c3ccccc3Cl)cn1)N1CCCC[C@@H]21 (racemic) [Example 20, 4-{(E)-2-[5-(2-Chlorophenyl)pyridin-2-yl]vinyl}-2-methyloctahydropyrrolo[3,4-a]-indolizine-1,3-dione]
